Each structure is given as a SMILES string.

Holding throughout (type): cell-based
Test [1] deals with PAF. In words: PAF production by purified human monocytes. On the set-up: key: NE: No effect; INHIB: Inhibition; STIM: Stimulation; IC40: 40% Inhibitory Concentration; EC50: 50% Effective Concentration; TC: Tolerated Concentration; IA: Interferes with Assay. Here is the method: This assay measures the ability of test compounds to modulate the amount of PAF produced by purified human monocytes. Compounds are tested for their ability to downregulate the secretion of PAF from activated monocytes, or upregulate secretion of PAF from unstimulated monocytes. Test compounds are incubated for ninety minutes with purified human monocytes ar four dilutions over a range of three log10 concentrations. Where appropriate, zymosan is used to stimulate the monocytes.
The level of PAF in the resultant supernatants is quantitated by immunoassay performed in a 96 well format. PAF levels modulated by unknown compounds are determined by interpolation from a standard curve. All compounds are tested in duplicate with controls and standards.
This assay measures the ability of test compounds to modulate the amount of PAF produced by purified, human monocytes. Compounds are tested for their ability to downregulate the secretion of PAF from activated monocytes, or upregulate secretion of PAF from unstimulated monocytes. Test compounds are incubated for ninety minutes with purified human monocytes ar four dilutions over a range of three log10 concentrations. Where appropriate, zymosan is used to stimulate the monocytes.

Test [2] has as its system normal human mononuclear cells. In words: PHA mitogen-stimulated cell proliferation. Also on record: key: NE: No effect; INHIB: Inhibition; STIM: Stimulation; IC40: 40% Inhibitory Concentration; EC50: 50% Effective Concentration; TC: Tolerated Concentration; IA: Interferes with Assay. Here is the method:
The purpose of this procedure is to determine the effect of test compounds on Mixed Lymphocyte Reaction and Mitogen-Induced Proliferation of normal human mononuclear cells.
Procedure for Cell Proliferation: Peripheral blood mononuclear cells (PBMNC) are added to a 96-well cell culture plate. Compounds are tested at four dilutions, in quadruplicates, over a range of three log10 concentrations along with negative an inhibitory controls. The test compounds are incubated with the cells for one hour, phytohemagglutinin (PHA) is then added to all reactive test wells and the cultures are incubated for three days. The cultures are then pulsed with ^3 H incorporation is then determined with a Wallac Betaplate counter.
Procedure for Cell Proliferation: Peripheral blood mononuclear cells (PBMNC) are added to a 96-well cell culture plate. Compounds are tested at four dilutions, in quadruplicates, over a range of three log10 concentrations along with negative an inhibitory controls. The test compounds are incubated with, the cells for one hour, phytohemagglutinin (PHA) is then added to all reactive test wells and the cultures are incubated for thee days. The cultures are then pulsed with ^3 H incorporation is then determined with a Wallac Betaplate counter.

In test [3] the test system is purified human monocytes. In words: Chemotactic response of purified human monocytes. On the set-up: key: NE: No effect; INHIB: Inhibition; STIM: Stimulation; IC40: 40% Inhibitory Concentration; EC50: 50% Effective Concentration; TC: Tolerated Concentration; IA: Interferes with Assay. Particulars: STIMULATED
Here is the method: This assay measures the ability of test compounds to modulate the chemotactic response of purified human monocytes in response to a chemoattractant. Compounds are tested at four dilutions over a range of three log10 concentrations. The test compounds are combined with monocytes labeled with a fluorescent indicator and placed in the top wells of a chemotaxis chamber, above an optimized concentration of a monocyte chemoattractant placed in the wells below, and separated by a microporous filter. After sixty minutes, the migration of cells through the filter is quantified flurorometrically, and expressed in relation to spontaneous and maximum controls. All tests are carried out in triplicate.

The subject of test [4] is tissue factor (TF). As to the kind of experiment: Membrane bound tissue factor production from purified human monocytes. Also on record: key to EFFECT on TISSUE FACTOR: NE: No effect; INHIB: Inhibition; STIM: Stimulation; IC40: 40% Inhibitory Concentration; EC50: 50% Effective Concentration; TC: Tolerated Concentration; IA: Interferes with Assay. Here is the method:
This assay determines the effect of test compounds on the production of membrane bound tissue factor (TF) from purified human monocytes. Compounds are tested for their ability to downregulate the production of TF in activated monocytes, or upregulate production of TF in unstimulated monocytes. Test compounds are incubated for sixteen hours with purified human monocytes at four dilutions over a range of three log10 concentrations. Where appropriate, lipopolysaccharide (LPS) is used to stimulate the monocytes.
After the above period of incubation, medium is aspirated from the monocytes, and the cells are solubilized in Triton-X 100. The level of TF in the soluble fraction is quantitated in a solid phase Enzyme-linked Immunoassay (EIA) performed in a 96 well format. TF present in the samples is captured by a specific monoclonal antibody immobilized on the well, and detected using a biotinylated antibody fragment specific for bound TF, followed by streptavidin conjugated to horseradish peroxidase and an appropriate substrate. The levels of TF are determined by interpolation of the resultant color change in the substrate from a standard curve. All supernatants are tested in duplicate with controls and standards.

The test system of test [5] is GM-CSF. As to the kind of experiment: GM-CSF expression from purified human monocytes. Also on record: key: NE: No effect; INHIB: Inhibition; STIM: Stimulation; IC40: 40% Inhibitory Concentration; EC50: 50% Effective Concentration; TC: Tolerated Concentration; IA: Interferes with Assay. Here is the method: This assay determines the effect of test compounds on the expression of GM-CSF from purified human monocytes. Compounds are tested for their ability to downregulate the production of GM-CSF in activated monocytes, or upregulate secretion of GM-CSF in unstimulated monocytes. Test compounds are incubated for sixteen hours with purified human monocytes at four dilutions over a range of three log10 concentrations. Where appropriate, lipopolysaccharide (LPS) is used to stimulate the monocytes.
The level of GM-CSF in the resultant supernatants is quantitated in a solid phase Enzyme-linked Immunoassay (EIA) performed in a 96 well format. GM-CSF present in the samples is captured by a specific monoclonal antibody immobilized on the well, and probed with an anti-GM-CSF polyclonal antibody conjugated to horseradish peroxidase, followed by an appropriate substrate. The levels of GM- CSF are determined by interpolation of the resultant color change in the substrate from a standard curve. All supernatants are tested in duplicate with controls and standards.

Broadly, the EC50 is the concentration that produces a half-maximal response. Turning to `CCCCCCCCCCCCCC/C=C\CC[C@@H]1OC(=O)C(O)=C1O` [(S)-3,4-Dihydroxy-5-[(Z)-3-octadecenyl]-2(5H)-furanone], the “EFFECT on PAF” value in test [1] (STIMULATED) and in test [1] (UNSTIMULATED) was “NE” in each case. For the same compound, the “EFFECT on PHA” value in test [2] is “NE”. Besides, the “EFFECT on CHEMOTAXIS” value in test [3] is “NE”. Besides, the EC50 in test [4] (Homo sapiens, Monocyte, STIMULATED, STIM) came out at 35 µM. Also, the “EFFECT on TISSUE FACTOR” value in test [4] (STIMULATED) is “STIM”; in test [4] (UNSTIMULATED), “NE”. For the same compound, the “EFFECT on GMCSF” value in test [5] (STIMULATED) and in test [5] (UNSTIMULATED) was “NE” each time.

(Values after patent publication US5656662A, “Synthesis of optically pure 4-alkenyl- or 4-alkanyl-2-hydroxytetronic acids” (The Ohio State University Research Foundation, priority 1995, dated 1997).)
